For data set [1], the system named is HIV/SARS-CoV S pseudovirus.
The nature of a further data set: in vitro. Particulars: human.
For data set [2], the system named is HIV/SARS-CoV S pseudovirus. The experiment in a line: organism not typed. Conditions: HepG2.
Data set [3] has as its system wtSARS-CoV strain PUMC01 F5. Format: cell-based, SARS-CoV.
The subject of another data set is TfR. The format is cell-based.
The subject of the next data set is ACE2. The format is cell-based, human.
The test system of a further data set is CD59. The format is cell-based.

Read-outs that look alike come from different tables or passages of the source.

As a reminder, the IC50 is the midpoint of a concentration-inhibition curve. On to `COc1cc(C=CC(=O)O)ccc1O` [4-Hydroxy-3-methoxycinnamic acid], for which the “SI (CC50/IC50)” value in data set [1] is reported as 2. In addition, the CC50 in the data set “in vitro” came to 10 ± 0.555 mM. Further, in data set [2], it took 5 ± 0.312 mM to reach half-maximal inhibition (IC50).

On to `Oc1cc(O)c2c(c1)O[C@H](c1ccc(O)c(O)c1)[C@H](O)[C@H]2c1c(O)cc(O)c2c1O[C@H](c1ccc(O)c(O)c1)[C@H](O)C2` [procyanidins B2, procyanidin B2], for which, in data set [3], the “Anti-SARS-CoV activity in wtSARS-CoV infection” value (“Anti-SARS-CoV activity” below) was “did not inhibit”. Also, in the data set on TfR, the “Effect on TfR expression” value is on record as “nor up-regulate”.

Regarding `O=C(O)/C=C/c1ccccc1` [Trans-cinnamic acid], the “Anti-SARS-CoV activity” value in data set [3] is reported as “did not show any anti-SARS-CoV activities”. For the same molecule, half-maximal inhibition in data set [1] (IC50) was put at 3 ± 0.178 mM. Further, in the data set on HepG2 cells, the CC50 came to 22.4 ± 1.23 mM.

As to `C=CC(C)(C)c1cc(/C=C/C(=O)c2ccc(O)cc2)c(OC)cc1O` [Licochalcone-A], in data set [1], the IC50 was determined as 0.03 ± 0.003 mM and the “SI (CC50/IC50)” value came to 1. Also, the CC50 in the data set on HepG2 cells amounted to 0.03 ± 0.001 mM.

For `Oc1cc(O)c2c(c1)O[C@@]1(c3ccc(O)c(O)c3)Oc3cc(O)c4c(c3[C@@H]2[C@H]1O)O[C@H](c1ccc(O)c(O)c1)[C@H](O)[C@H]4c1c(O)cc(O)c2c1O[C@H](c1ccc(O)c(O)c1)[C@H](O)C2` [Cinnamtannin B1], the “IC50 with virus pretreated (1 h) compared with drug added simultaneously (0 h)” value in data set [3] is on record as “not different”. In addition, the “Effect on TfR expression” value with TfR is on record as “up-regulated”. In the data set on ACE2, the “ACE2 expression versus untreated control (positive percentages and MFI)” value was “no significant difference”. In the data set “in vitro”, this molecule displayed a CC50 of 0.242 ± 0.0148 mM. This molecule also had an IC50 in data set [2] of 0.0329 ± 0.0028 mM.

Consider `CC(=O)c1ccccc1O` [2′-Hydroxyacetophenone], for which the “SI (CC50/IC50)” value in data set [1] was found to be 1. The molecule also displayed a CC50 in “in vitro” of 1.8 ± 0.071 mM. This molecule also had a half-inhibitory concentration (IC50) in data set [2] of 1.8 ± 0.102 mM.

Turning to `CC(=O)OC/C=C/c1ccccc1` [Cinnamylacetate], in data set [1], the IC50 is 7.1 ± 0.35 mM and the “SI (CC50/IC50)” value came out at 1. This molecule also returned a CC50 in the data set with HepG2 cells of 7.1 ± 0.42 mM.

`C=CCc1ccc(OC)cc1` [4-Allylanisole]: in “in vitro”, the CC50 worked out at 8 ± 0.563 mM. The molecule also came in with a concentration for half-maximal inhibition (IC50) in data set [2] of 8.4 ± 0.65 mM.

As for `COc1cc(C=CC=O)ccc1O` [4-Hydroxy-3-methoxy cinnamaldehyde], the “SI (CC50/IC50)” value in data set [1] is on record as 2.3. The CC50 in “in vitro” is 0.7 ± 0.043 mM. In addition, in data set [2], the IC50 was 0.3 ± 0.013 mM.

`Cc1ccc(C(C)C)cc1` [p-Cymene]: the “SI (CC50/IC50)” value in data set [1] was found to be 1. Also, the CC50 in the data set “in vitro” was found to be 75 ± 4.35 mM. Also, in data set [2], it took 75 ± 5.55 mM to reach half-maximal inhibition (IC50).

Take `O=c1ccc2ccc(O)cc2o1` [7-Hydroxycoumarin]: the “SI (CC50/IC50)” value in data set [1] came to 4.3. In the data set “in vitro”, this molecule came in with a CC50 of 10.7 ± 0.56 mM. The molecule also returned an IC50 in data set [2] of 2.5 ± 0.172 mM.

Isoeugenol yielded an IC50 in data set [1] of 2 ± 0.142 mM.

With `CCOC(=O)/C=C/c1ccccc1` [Ethylcinnamate], the “SI (CC50/IC50)” value in data set [1] is listed as 2.0. For the same molecule, the CC50 in “in vitro” is 14.1 ± 1.22 mM. In data set [2], this molecule registered an IC50 of 7.1 ± 0.532 mM.

As for `O=C/C=C/c1ccccc1` [Trans-cinnamaldehyde], in data set [1], the “SI (CC50/IC50)” value turned out to be 1. This molecule also had a CC50 in “in vitro” of 0.2 ± 0.014 mM. Besides, it took 0.2 ± 0.016 mM to reach half-maximal inhibition in data set [2] (IC50).

Turning to `O=C(O)C=Cc1ccccc1O` [2-Hydroxycinnamic acid], in data set [3], the “Anti-SARS-CoV activity” value was “did not show any anti-SARS-CoV activities”. Moreover, the CC50 in the data set “in vitro” was found to be 2.5 ± 0.122 mM. For the same molecule, the IC50 in data set [2] was determined as 0.3 ± 0.013 mM.

On to `O=c1cc(O)c2ccccc2o1` [4-Hydroxycoumarin], for which, in data set [1], the “SI (CC50/IC50)” value stood at 1. The same molecule displayed a CC50 in the data set “in vitro” of 10.3 ± 0.66 mM. The molecule further came in with an IC50 in data set [2] of 10.3 ± 0.5 mM.

Take `COc1ccc(C=CC(=O)O)cc1OC` [3,4-Dimethoxycinnamic acid]: the “SI (CC50/IC50)” value in data set [1] is 2. In addition, the CC50 in “in vitro” was determined as 10 ± 0.62 mM. The same molecule showed an IC50 in data set [2] of 5 ± 0.233 mM.

With `Oc1cc(O)c2c(c1)O[C@H](c1ccc(O)c(O)c1)[C@H](O)[C@H]2c1c(O)cc(O)c2c1O[C@H](c1ccc(O)c(O)c1)[C@@H](O)C2` [Procyanidin B1], the “IC50 with virus pretreated (1 h) compared with drug added simultaneously (0 h)” value in data set [3] is reported as “not different”. Besides, the “Effect on TfR expression” value with TfR was “did not affect”. For the same molecule, the “Effect on CD59 expression” value in the data set on CD59 was “did not affect”. In addition, the “ACE2 expression versus untreated control (positive percentages and MFI)” value in the data set on ACE2 is “no significant difference”. In “in vitro”, the CC50 amounted to 0.656 ± 0.0367 mM. The same molecule yielded an IC50 in data set [2] of 0.161 ± 0.0203 mM.

In the case of `OCCc1ccccc1` [2-Phenylethanol (phenethy alcohol), 2-Phenylethanol], in data set [3], the “Anti-SARS-CoV activity” value was “did not show any anti-SARS-CoV activities”. The CC50 in the data set “in vitro” stood at 24.5 ± 1.53 mM. In data set [2], this molecule came in with an IC50 of 4.1 ± 0.199 mM.

These data come from paper PMC7114128 (Antiviral Research, 2009).
